Measurements published in ChEMBL document CHEMBL1201862, “PubChem BioAssay data set” (2004).
Activity calls are given as the source filed them.

Legend:
[1] = viability of uninfected HEp-2 cells – cell-based, HTS, cytotoxicity control for RSV inhibitor project, dose response (AID 2410); type: functional; settings: human respiratory syncytial virus
Cytochrome P450 2C9 = Cytochrome P450 2C9 (Homo sapiens, UniProt P11712)
Cytochrome P450 2C19 = Cytochrome P450 2C19 (Homo sapiens, UniProt P33261); test: Cytochrome panel assay with activity outcomes. Panel member name: p450-cyp2c19 Compounds with AC50 equal or less than 10 uM are considered active; type: functional; settings: read-out: AC50
Cytochrome P450 3A4 = Cytochrome P450 3A4 (Homo sapiens, UniProt P08684);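 further: CYP3A4 tested as one member of a cytochrome P450 panel screen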
Cytochrome P450 1A2 = biological target: T1, Cytochrome P450 1A2 (Homo sapiens, UniProt P05177);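 further: PubChem cytochrome P450 panel assay, CYP1A2 panel member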
T1 sequence (P05177 whole entry): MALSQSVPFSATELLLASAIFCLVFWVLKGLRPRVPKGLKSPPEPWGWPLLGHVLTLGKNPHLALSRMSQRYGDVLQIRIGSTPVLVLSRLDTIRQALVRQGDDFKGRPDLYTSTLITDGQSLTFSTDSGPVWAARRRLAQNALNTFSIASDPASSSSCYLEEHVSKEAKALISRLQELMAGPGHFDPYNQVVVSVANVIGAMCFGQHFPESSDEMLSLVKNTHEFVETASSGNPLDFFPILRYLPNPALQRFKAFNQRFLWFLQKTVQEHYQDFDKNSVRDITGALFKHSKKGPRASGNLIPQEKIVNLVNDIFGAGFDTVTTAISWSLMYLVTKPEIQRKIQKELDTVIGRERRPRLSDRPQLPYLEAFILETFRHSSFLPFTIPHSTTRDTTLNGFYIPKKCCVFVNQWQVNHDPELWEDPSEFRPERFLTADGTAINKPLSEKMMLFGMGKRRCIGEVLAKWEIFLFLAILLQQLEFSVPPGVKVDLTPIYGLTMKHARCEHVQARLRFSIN

[2] = Luminescence Cell-Based Dose Retest to Confirm Inhibitors of Cancer Stem Cells. [Related pubchem assays (depositor defined):AID2717, AID2721]; type: functional; settings: Homo sapiens
[3] = biological target: T2, Heat shock factor protein 1 (Mus musculus, UniProt P38532); test: enhancement of HSF1-driven luciferase signal – cell-based, NIH3T3, luminescence, dose retest, confirmation (AID 435004); type: functional;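 further: stress induced by proteasome inhibitor MG132 added 30 min after compound; luciferase reporter driven by HSF1 response element in NIH3T3 cells; actives raise luminescence as potentiators of the MG132 stress response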
T2 sequence (P38532 whole entry): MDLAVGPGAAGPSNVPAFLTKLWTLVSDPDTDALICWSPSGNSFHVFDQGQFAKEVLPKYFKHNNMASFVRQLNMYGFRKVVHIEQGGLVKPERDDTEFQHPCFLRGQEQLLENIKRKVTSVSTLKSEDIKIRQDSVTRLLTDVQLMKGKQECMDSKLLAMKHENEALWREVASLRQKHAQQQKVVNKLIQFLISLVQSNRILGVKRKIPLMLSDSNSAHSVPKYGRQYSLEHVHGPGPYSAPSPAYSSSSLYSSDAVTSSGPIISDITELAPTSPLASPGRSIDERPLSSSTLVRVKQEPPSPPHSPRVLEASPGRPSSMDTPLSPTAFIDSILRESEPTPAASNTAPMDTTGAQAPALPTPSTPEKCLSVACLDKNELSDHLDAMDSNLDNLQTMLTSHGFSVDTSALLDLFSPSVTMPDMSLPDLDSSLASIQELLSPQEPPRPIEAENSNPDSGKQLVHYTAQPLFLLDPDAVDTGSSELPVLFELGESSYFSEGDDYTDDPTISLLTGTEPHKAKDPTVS

[4] = NIH3T3 cell viability loss – ATP luminescence, mouse fibroblasts, counter-screen, dose response (AID 2010); type: functional, cell-based;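 further: cells exposed to compound for about 90 hours before reading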
[5] = Trypanosoma cruzi growth suppression in host cells – NIH3T3 host cells, beta-gal luminescence, confirmation (AID 2044); type: functional, cell-based;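 further: intracellular parasites grown in NIH/3T3 mouse fibroblasts as host cells; luminescent beta-galactosidase reporter signal from transgenic T. cruzi replicating inside host cells; inhibitors lower the luminescence signal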
Streptokinase A = biological target: T3, Streptokinase A (Streptococcus pyogenes serotype M1, UniProt P10520); test: viability-normalized secreted streptokinase activity reduction – plasminogen activation absorbance, OD405, dose response (AID 1914); type: functional, Streptococcus pyogenes M1 GAS;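 further: secreted streptokinase activity via plasminogen activation per viability signal from cell pellet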
T3 sequence (P10520 whole entry): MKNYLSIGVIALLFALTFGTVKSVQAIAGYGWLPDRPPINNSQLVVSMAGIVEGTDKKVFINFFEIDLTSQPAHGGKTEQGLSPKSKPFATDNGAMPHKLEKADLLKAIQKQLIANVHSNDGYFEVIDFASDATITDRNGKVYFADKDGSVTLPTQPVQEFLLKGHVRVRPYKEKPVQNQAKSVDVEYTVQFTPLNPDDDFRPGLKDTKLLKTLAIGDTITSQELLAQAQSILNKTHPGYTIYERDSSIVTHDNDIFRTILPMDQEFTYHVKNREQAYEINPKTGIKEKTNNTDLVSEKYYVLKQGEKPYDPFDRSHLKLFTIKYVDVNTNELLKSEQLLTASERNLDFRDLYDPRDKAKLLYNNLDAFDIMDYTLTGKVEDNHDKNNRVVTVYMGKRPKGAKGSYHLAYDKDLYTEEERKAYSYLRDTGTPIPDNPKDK

Streptococcus = test: GAS UMAA2166 growth inhibition – luminescence, BacTiterGlo, counter-screen for streptokinase expression inhibitor project, dose response (AID 1915); type: functional, organism-based;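 further: potency for reduction of bacterial viability or growth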
[6] = tested on: Streptococcus sp. 'group A'; test: Streptococcus pyogenes SK(-)GAS viability under kanamycin – luminescence, BacTiterGlo, confirmation, counter-screen for streptokinase expression inhibitor project, dose response (AID 1900); type: functional, organism-based

Cytochrome P450 2C9, sequence (P11712 whole entry): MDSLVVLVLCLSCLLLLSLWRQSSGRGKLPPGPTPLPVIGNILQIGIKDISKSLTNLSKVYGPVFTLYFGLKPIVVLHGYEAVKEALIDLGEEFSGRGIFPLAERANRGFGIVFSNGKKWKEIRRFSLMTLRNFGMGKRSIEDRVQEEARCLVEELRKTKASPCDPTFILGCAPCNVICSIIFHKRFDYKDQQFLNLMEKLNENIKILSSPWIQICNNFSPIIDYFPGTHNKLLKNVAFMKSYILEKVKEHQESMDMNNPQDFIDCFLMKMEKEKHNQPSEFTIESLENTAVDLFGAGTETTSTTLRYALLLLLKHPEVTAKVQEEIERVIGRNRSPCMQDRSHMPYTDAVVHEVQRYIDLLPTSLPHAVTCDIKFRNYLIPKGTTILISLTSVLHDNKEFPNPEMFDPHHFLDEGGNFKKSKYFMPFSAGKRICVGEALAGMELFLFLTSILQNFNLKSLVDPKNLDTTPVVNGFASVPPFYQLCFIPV
Cytochrome P450 2C19, sequence (P33261 whole entry): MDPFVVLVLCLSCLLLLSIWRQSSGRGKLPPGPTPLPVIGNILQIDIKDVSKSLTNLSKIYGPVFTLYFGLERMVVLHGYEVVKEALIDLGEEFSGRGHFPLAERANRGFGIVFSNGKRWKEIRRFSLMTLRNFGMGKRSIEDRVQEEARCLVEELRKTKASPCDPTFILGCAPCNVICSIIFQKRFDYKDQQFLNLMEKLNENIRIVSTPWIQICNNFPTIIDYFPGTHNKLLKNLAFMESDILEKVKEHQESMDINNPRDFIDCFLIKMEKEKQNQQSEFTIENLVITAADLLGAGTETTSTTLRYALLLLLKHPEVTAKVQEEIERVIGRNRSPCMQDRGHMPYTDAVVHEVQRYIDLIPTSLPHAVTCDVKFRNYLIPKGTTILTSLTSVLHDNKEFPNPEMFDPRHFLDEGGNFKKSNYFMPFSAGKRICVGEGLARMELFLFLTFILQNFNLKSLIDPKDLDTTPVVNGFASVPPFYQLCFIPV
Cytochrome P450 3A4, sequence (P08684 whole entry): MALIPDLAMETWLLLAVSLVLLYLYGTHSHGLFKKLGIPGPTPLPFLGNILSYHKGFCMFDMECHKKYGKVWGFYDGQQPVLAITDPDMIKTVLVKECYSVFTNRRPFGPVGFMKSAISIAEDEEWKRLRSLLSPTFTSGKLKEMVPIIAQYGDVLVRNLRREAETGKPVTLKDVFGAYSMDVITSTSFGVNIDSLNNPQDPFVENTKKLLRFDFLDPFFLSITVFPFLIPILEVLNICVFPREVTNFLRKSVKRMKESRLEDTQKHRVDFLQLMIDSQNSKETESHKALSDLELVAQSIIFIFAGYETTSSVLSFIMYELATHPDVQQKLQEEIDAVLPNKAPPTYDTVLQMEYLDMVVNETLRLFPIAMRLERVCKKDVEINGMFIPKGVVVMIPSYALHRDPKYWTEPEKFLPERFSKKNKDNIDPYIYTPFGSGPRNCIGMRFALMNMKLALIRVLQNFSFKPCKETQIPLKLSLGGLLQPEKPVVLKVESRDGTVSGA

## O=C(CCC1N=C2c3ccccc3N=C(SCc3ccc(Cl)cc3)N2C1=O)NCc1ccco1 (stereo not drawn)
[1]
  CC50: 25.4 µM (active)

## COc1ccc2[nH]c3c(NCCCN4CCCC4=O)ncnc3c2c1
Cytochrome P450 2C9
  AC50: 3.98 µM (inconclusive)
Cytochrome P450 2C19
  AC50: 39.8 µM (inconclusive)
Cytochrome P450 3A4
  AC50: 17.8 µM (inconclusive)

## N#Cc1cccc(NC(=O)N2CCCC3(CCN(C(=O)Oc4ccccc4)CC3)C2)c1
Cytochrome P450 2C9
  AC50: 25.1 µM (inconclusive)
Cytochrome P450 2C19
  AC50: 25.1 µM (inconclusive)
Cytochrome P450 3A4
  AC50: 12.6 µM (inconclusive)
Cytochrome P450 1A2
  AC50: 15.8 µM (inconclusive)

## CCOc1ccc(OCc2ccc(C(=O)N3CCc4ccccc4C3)o2)cc1
Cytochrome P450 3A4
  AC50: 39.8 µM (inconclusive)
[1]
  CC50: 23.4 µM (active)

## O=C(CCN1C(=O)C2C3C=CC(C3)C2C1=O)N1CCN(c2cccc(Cl)c2)CC1 (stereo not drawn)
Cytochrome P450 2C9
  AC50: 11.2 µM (inconclusive)
Cytochrome P450 2C19
  AC50: 25.1 µM (inconclusive)

## COc1ccccc1/C=C/C=N/n1c(S)nnc1-c1[nH]nc2c1CCC2
[2]
  AC50: 13.7 µM (active)

## CC(C)NC(=O)c1c(O)c2cccc3c2n(c1=O)CCC3
[1]
  CC50: 17.3 µM (active)

## CSc1nc2ccccc2n1CC(=O)Nc1cc(C(F)(F)F)ccc1N1CCOCC1
[1]
  CC50: 42.4 µM (active)

## O=C(CCc1ccc(S(=O)(=O)N2CCOCC2)cc1)N1CCN(Cc2ccc3c(c2)OCO3)CC1
[3]
  EC50: > 260 µM (inactive)

## COc1cc(NC(=O)c2cc([N+](=O)[O-])ccc2NC(=O)CNC2CCCCC2C)cc(OC)c1 (stereo not drawn)
[3]
  EC50: > 260 µM (inactive)

## Oc1ccc(Nc2nc(-c3ccccc3O)nc3ccccc23)cc1
[2]
  AC50: 2.71 µM (active)

## Oc1cccnc1Sc1cccc(C(F)(F)F)c1
[3]
  EC50: 165 µM (active)

## FC(F)(F)c1cnc(Sc2nc3nccc(-c4ccc(Cl)cc4)n3n2)c(Cl)c1
[4]
  EC50: > 30 µM (not active)
[3]
  EC50: > 260 µM (inactive)
[5]
  EC50: 1.72 µM (active)

## COc1ccc(-c2cc(C(=O)NCc3ccco3)c3ccccc3n2)cc1
[3]
  EC50: 158 µM (active)

## NC(=O)CC(NC(=O)Cc1cccc2ccccc12)c1ccc(NCc2ccc(F)c(F)c2)c([N+](=O)[O-])c1 (stereo not drawn)
[2]
  AC50: 11.2 µM (active)

## COc1cc(-n2ccnc2SC)c(Cl)cc1Cl
Cytochrome P450 2C9
  AC50: 39.8 µM (inconclusive)
Cytochrome P450 2C19
  AC50: 7.08 µM (inconclusive)
Cytochrome P450 1A2
  AC50: 15.8 µM (inconclusive)

## CCO[C@@H]1OC(C(=O)Nc2ccccc2)=C[C@H](c2csc3ccccc23)[C@H]1CCCO
[1]
  CC50: 22.4 µM (active)

## COc1ccc(S(=O)(=O)Cc2ccc(C(=O)NCCCN(C)c3ccccc3)o2)cc1
[3]
  EC50: > 260 µM (inactive)

## COc1ccccc1NC(=O)CC(=O)CSc1nnc(-c2ccc(C)cc2)n1C
[1]
  CC50: 17.7 µM (active)

## CCC1(C)Cc2c(sc3nc(SC)n(Cc4ccccc4)c(=O)c23)CO1 (stereo not drawn)
[2]
  AC50: 0.259 µM (active)

## COc1cc(/C=C/C(=O)c2c(O)ccc3c(C)cc(=O)oc23)ccc1O
[3]
  EC50: 15 µM (active)

## COC(=O)[C@@]1(Cc2ccccc2)[C@H]2c3cc(C(=O)N(C)C)n(Cc4ccc(S(C)(=O)=O)cc4)c3C[C@H]2CN1C(=O)c1ccccc1
Cytochrome P450 2C9
  AC50: 25.1 µM (inconclusive)
Cytochrome P450 2C19
  AC50: 39.8 µM (inconclusive)
Cytochrome P450 1A2
  AC50: 31.6 µM (inconclusive)

## O=c1cc(-c2ccccc2Cl)oc2c(NS(=O)(=O)c3cccs3)ccc(O)c12
[1]
  CC50: 22 µM (active)

## O=C(Nc1cc(Cl)ccc1O)C1CC(c2ccccc2Cl)=NO1 (stereo not drawn)
[1]
  CC50: > 50 µM (active)

## N#Cc1cccc(Nc2c3c(nc4ccccc24)CCCC3)c1
[1]
  CC50: 15.9 µM (active)

## Clc1ccc2c(c1)C1OCCC1C(c1ccco1)N2 (stereo not drawn)
[1]
  CC50: 33.4 µM (active)

## COc1cccc(NP(=O)(Oc2ccc(Cl)cc2)Oc2ccc(Cl)cc2)c1
Streptokinase A
  EC50: 4.68 µM (active)
Streptococcus
  EC50: 11.2 µM (active)
[2]
  AC50: 3.11 µM (active)
[6]
  EC50: 6.17 µM (active)

## COC(=O)C1C(=O)C2=C(CC1C)N=C(C)/C(=C(/O)OCc1ccc(OC)cc1)C2c1ccc(C)o1 (stereo not drawn)
[3]
  EC50: > 260 µM (inactive)

## COc1ccc(NC(=O)c2[nH]cnc2C(=O)N[C@@H](CC(C)C)C(=O)OC(C)(C)C)cc1
Streptokinase A
  EC50: > 150 µM (not active)
Streptococcus
  EC50: 11.6 µM (active)
[2]
  AC50: 7.16 µM (active)
[6]
  EC50: 4.08 µM (active)

## CCOC(=O)c1nn(-c2ccc(F)cc2)c(-c2ccccc2)c1C(=O)c1ccccc1
[2]
  AC50: 5.46 µM (active)

## Cc1ccc(OCCN2CCN(c3nc(NCc4ccco4)c4ccccc4n3)CC2)cc1
[4]
  EC50: 6.18 µM (active)
[2]
  AC50: 4.7 µM (active)
[5]
  EC50: 1.35 µM (active)

## Cc1ccc(C(=O)NCC(C)NC(=O)c2ccc(C)c([N+](=O)[O-])c2)cc1[N+](=O)[O-] (stereo not drawn)
[3]
  EC50: > 260 µM (inactive)

## CN(/C(=N\S(=O)(=O)c1ccccc1)c1ccccc1)c1ccc(O)cc1
[3]
  EC50: > 260 µM (inactive)

## COc1ccc(Br)cc1CN1CCCCCCC1
[3]
  EC50: > 260 µM (inactive)

## C=CCc1ccc(OCC(O)CO)c(OC)c1 (stereo not drawn)
[3]
  EC50: > 260 µM (inactive)

## COc1ccc(Cc2nnc(SCC(=O)Nc3ccc(N4CCOCC4)cc3)o2)cc1
[3]
  EC50: > 260 µM (inactive)

## CCCc1cc(O)nc(SCC(=O)c2cc(C)n(C3CC3)c2C)n1
[1]
  CC50: 43.1 µM (active)
